Results on 1 compound are retold here after publication PMC7506137, “Selective Phosphodiesterase 1 Inhibitor BTTQ Reduces Blood Pressure in Spontaneously Hypertensive and Dahl Salt Sensitive Rats: Role of Peripheral Vasodilation” (Frontiers in Physiology, 2020).

For orientation: pIC50 means the IC50 on a negative log10 scale, so that one unit is a factor of ten.

One assay has as its target T1, Rat PDE1B (Rattus norvegicus, UniProt Q01066).
T1 construct: made in house; host or cells: baculovirus-infected insect cells
T1 sequence (Q01066 1-535): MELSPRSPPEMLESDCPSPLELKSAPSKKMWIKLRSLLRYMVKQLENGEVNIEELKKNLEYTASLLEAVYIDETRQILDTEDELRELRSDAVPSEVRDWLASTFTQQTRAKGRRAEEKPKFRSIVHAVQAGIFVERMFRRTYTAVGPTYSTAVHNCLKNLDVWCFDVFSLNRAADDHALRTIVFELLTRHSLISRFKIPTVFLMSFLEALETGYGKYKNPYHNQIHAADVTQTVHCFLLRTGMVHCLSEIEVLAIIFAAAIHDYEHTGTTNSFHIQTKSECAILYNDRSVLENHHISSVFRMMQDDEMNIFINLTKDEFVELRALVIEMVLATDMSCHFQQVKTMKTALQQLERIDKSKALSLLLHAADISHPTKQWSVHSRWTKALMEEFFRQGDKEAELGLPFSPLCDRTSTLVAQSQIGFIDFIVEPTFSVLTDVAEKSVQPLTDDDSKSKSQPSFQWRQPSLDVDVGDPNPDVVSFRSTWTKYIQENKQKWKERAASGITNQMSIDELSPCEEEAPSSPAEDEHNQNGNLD
Nature of the assay: PDE scintillation proximity enzyme assay. Format: biochemical. Here is the method:
(§1) All PDE enzyme activities were measured with a yittrium silicate based scintillation proximity assay that detects radioactive nucleotide monophosphates but not cyclic monophosphates. Assays are conducted in a total volume of 50 μl in 384 well plates (3706, Corning): comprised of 24 μl enzyme, 1 μl compound, and 25 μl of cyclic nucleotide. The general assay buffer consists of 50 mM Tris-HCl (pH 7.5) and 0.1% (w/v) bovine serum albumin (Fatty Acid Free, Sigma-Aldrich). Enzyme concentrations, substrate concentrations, and various PDE-specific buffer additives are described in Supplementary Table 1. Compounds to be tested are diluted in pure dimethyl sulfoxide (DMSO) using 10-point concentration-response curves, and 1 μl is acoustically dispensed into assay plates using the Echo555 (LabCyte). Maximal compound concentration in the reaction mixture is either 10 or 100 μM. Compounds at the appropriate concentration are pre-incubated with either of the PDE enzymes for 30 min before the reaction is started by the addition of substrate ([8-^3H]-cAMP, 20.7 Ci/mmol or [8-^3H]-cGMP; 6.5 Ci/mmol, Perkin Elmer). Reactions are allowed to proceed for 60 min at room temperature before quenching. Next, reactions are stopped by the addition of 400 μg/per well SPA beads (RPNQ0150, Perkin Elmer) and a potent non-selective PDE inhibitor to quench the reaction. Bead bound radioactivity (product) is quantified 12 h later a Microbeta counter (Perkin Elmer). Data is normalized to % inhibition using standard methods ([Campbell et al., 2004]), and IC50 values were plotted using PRISM (GraphPad Software) using the 4 parameter logistic equation ([Campbell et al., 2004]). Data for potency values are expressed as the geometric mean and arithmetic standard deviation.
(SPA uses beads or plates that emit light when radiolabelled molecules are held near them.)

The target in a further assay is T2, Rat PDE3A (Rattus norvegicus, UniProt Q62865).
T2 construct: made in house; host or cells: baculovirus-infected insect cells
T2 sequence (Q62865 1-1141): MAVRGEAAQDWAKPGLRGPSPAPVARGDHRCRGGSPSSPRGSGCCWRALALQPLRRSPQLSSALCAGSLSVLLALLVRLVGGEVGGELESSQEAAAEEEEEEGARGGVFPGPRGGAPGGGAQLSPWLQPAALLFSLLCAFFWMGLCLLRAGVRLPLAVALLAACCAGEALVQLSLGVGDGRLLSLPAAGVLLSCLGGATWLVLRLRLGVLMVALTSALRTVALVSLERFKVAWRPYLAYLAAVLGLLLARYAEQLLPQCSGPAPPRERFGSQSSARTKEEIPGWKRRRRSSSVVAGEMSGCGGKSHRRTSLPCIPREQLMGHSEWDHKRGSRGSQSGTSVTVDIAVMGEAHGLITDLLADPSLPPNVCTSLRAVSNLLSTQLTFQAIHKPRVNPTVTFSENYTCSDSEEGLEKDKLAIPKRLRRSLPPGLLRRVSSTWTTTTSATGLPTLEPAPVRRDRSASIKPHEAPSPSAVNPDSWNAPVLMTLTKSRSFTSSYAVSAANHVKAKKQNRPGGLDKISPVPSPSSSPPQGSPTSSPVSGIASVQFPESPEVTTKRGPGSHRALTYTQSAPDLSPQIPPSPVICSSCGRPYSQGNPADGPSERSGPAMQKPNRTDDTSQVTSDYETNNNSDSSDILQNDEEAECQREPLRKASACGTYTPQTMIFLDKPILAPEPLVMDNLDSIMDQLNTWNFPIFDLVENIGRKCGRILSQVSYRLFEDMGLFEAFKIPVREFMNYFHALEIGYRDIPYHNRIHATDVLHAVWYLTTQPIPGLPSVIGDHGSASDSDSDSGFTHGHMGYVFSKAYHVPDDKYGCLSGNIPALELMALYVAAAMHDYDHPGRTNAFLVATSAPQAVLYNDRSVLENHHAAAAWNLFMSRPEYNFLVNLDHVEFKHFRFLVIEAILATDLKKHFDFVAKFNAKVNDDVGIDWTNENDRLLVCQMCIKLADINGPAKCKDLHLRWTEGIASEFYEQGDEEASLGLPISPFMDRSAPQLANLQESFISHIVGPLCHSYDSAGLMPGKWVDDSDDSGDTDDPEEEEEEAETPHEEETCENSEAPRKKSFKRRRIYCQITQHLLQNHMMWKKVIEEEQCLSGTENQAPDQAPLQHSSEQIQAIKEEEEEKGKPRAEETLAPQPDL
The assay can be described thus: PDE scintillation proximity enzyme assay. The class given is biochemical. Here is the method:
as §1

Assay [1] has as its system mesenteric arteries from Dahl SS rats. Nature of the assay: Myography in isolated mesenteric arteries. Also on record: species or system Rat. The text has this:
For studies of the mesenteric arteries, rats were anesthetized using 5% isoflurane gas followed by euthanasia by secondary method. Small mesenteric arteries (∼300-μm internal diameter, 350-μm external diameter) supplying the small intestine were carefully excised under a dissecting microscope (Leica; Buffalo, NY, United States) and immersed in a cold physiological salt solution having the following ionic composition (in mM): NaCl (119.0), KCl (4.7), CaCl2 (1.6), NaH2PO4 (1.18), MgSO4 (1.17), NaHCO3 (24.0), D-glucose (5.5), and EDTA (0.03). The arteries were cannulated at the proximal and distal ends using glass micropipettes. The vessels were equilibrated with a 21% O2, 5% CO2, 74% N2 gas mixture at 37°C in the physiological salt solution for 30 min. The intraluminal pressure was maintained at 80 mmHg to approximate in vivo conditions, and the internal diameter of the artery was measured using television microscopy. Responses to vasodilator stimuli (different BTTQ concentrations) were determined in arteries precontracted with 10 μM phenylephrine (PE) and expressed as % increase from basal (PE-precontracted) diameter. Responses of the mesenteric arteries to the endothelium-dependent vasodilator agonist acetylcholine (ACh) were evaluated in SS rats fed a high salt diet (4% NaCl) for 3 weeks and treated with BTTQ (3 mg/kg) p.o. gavage twice daily or vehicle.

pIC50: −log10 of the molar value. Where two headings read alike, the source gives them in different places.

As to `O=c1c2nnc(C3(C4CC4)CC3)n2c2c(n1CC1CC1)CCCC2` [BTTQ, 1-[1,1′-bi(cyclopropyl)-1-yl]-5-(cyclopropylmethyl)-6,7,8,9-tetrahydro[1,2,4]triazolo[4,3-A]quinoxaline-4(5H)-one], the values for the pIC50 against Rat PDE1B and at Rat PDE3A (read-out: IC50) were 9.00 and < 4.00, respectively. Also, the IC50 result at Rat PDE3A was “inactive”. In addition, in assay [1] (1 mM, arteries pre-constricted with 10 μM phenylephrine), the “relaxation, % of the initial fully relaxed diameter” value was “about 92%”. For the same compound, in assay [1] (arteries from Dahl SS rats treated by oral gavage (3 mg/kg twice daily), high salt diet 21 days), the “acetylcholine-induced vasorelaxation, treated vs vehicle group” value was “no significant difference”. The “relaxation of mesenteric arteries compared to the vehicle” value in assay [1] (escalating concentrations, pre-constricted with 10 μM phenylephrine) was “concentration-dependent relaxation”.
